Reference: paper PMC8657435, “Adamantane-Substituted Purines and Their β-Cyclodextrin Complexes: Synthesis and Biological Activity” (International Journal of Molecular Sciences, 2021)
Where “and” joins values, the source holds several entries; their conditions need not be identical. Identical values can stand only once. Like-named read-outs stand apart in the source and are kept apart here.

Experiments:
CDK2/cyclin E [1] = biological target: T1, CDK2/cyclin E (Homo sapiens, UniProt P24941); assay: CDK2/cyclin E kinase inhibition assay ([γ-33P]ATP, peptide substrate); type: biochemical
Description: CDK2/cyclin E activity was assayed as previously described. Briefly, the kinase was assayed with [γ-^33P]ATP and suitable peptide substrates in a reaction buffer (60 mM HEPES-NaOH, pH 7.5, 3 mM MgCl2, 3 mM MnCl2, 3 μM Na-orthovanadate, 1.2 mM DTT, 2.5 μg/50 μL PEG20.000). The reactions were stopped by adding 5 µL of 3% aq. H3PO4. Aliquots were spotted onto P-81 phosphocellulose, washed with 0.5% aq. H3PO4 and air-dried. Kinase inhibition was quantified using an FLA-7000 digital image analyser.

K-562 [2] = assay: In vitro cytotoxicity / antiproliferative activity, resazurin viability assay, 72 h; type: cell-based, human
MCF-7 [3] = assay: as above; type: cell-based, human
K-562 [4] = test system: K-562; set-up: method as in Popowycz et al. [51]; settings: single purine; ref Popowycz et al. [51]; cited from earlier work
MCF-7 [5] = test system: MCF-7; set-up: method as in Popowycz et al. [51]; settings: single purine; ref Popowycz et al. [51]; cited from earlier work
CDK2 = settings: no inhibition activity; read-out: IC50 towards CDK2; cited from earlier work
CDK2/cyclin E [6] = biological target: T1, CDK2/cyclin E; settings: Figure 1; cited from earlier work
CDK1 = test system: CDK1; set-up: method as in PMID 24900429; settings: no inhibition activity; read-out: IC50 towards CDK1; cited from earlier work
[7] = mixture purine·β-CD 1:1 molar ratio, read-out: CDK2/Cyclin E IC50, Purine·β-CD (1:1)
[8] = mixture purine·β-CD 1:10 molar ratio, read-out: CDK2/Cyclin E IC50, Purine·β-CD (1:10)
[9] = single purine, no β-CD, mean ± SD of duplicated experiments, read-out: CDK2/Cyclin E IC50, Purine
[10] = Homo sapiens, K562, single purine, 72 h, read-out: K-562 GI50, Purine
[11] = mixture purine·β-CD 1:1, 72 h, read-out: K-562 GI50, Purine·β-CD (1:1)
[12] = mixture purine·β-CD 1:10, 72 h, read-out: K-562 GI50, Purine·β-CD (1:10)
[13] = Homo sapiens, MCF7, single purine, 72 h, read-out: MCF-7 GI50, Purine
[14] = mixture purine·β-CD 1:1, 72 h, read-out: MCF-7 GI50, Purine·β-CD (1:1)
[15] = mixture purine·β-CD 1:10, 72 h, read-out: MCF-7 GI50, Purine·β-CD (1:10)
[16] = mixture purine·β-CD 1:1 molar ratio
[17] = mixture purine·β-CD 1:10 molar ratio
[18] = single purine, no β-CD, mean ± SD of duplicated experiments

IC50 (CDK2/cyclin E [1]; [7]) | IC50 (CDK2/cyclin E [1]; [8]) | IC50 (CDK2/cyclin E [1]; [9]) | melting point | SMILES | GI50 (K-562 [2]; [10]) | GI50 (K-562 [2]; [11]) | GI50 (K-562 [2]; [12]) | GI50 (MCF-7 [3]; [13]) | GI50 (MCF-7 [3]; [14]) | GI50 (MCF-7 [3]; [15]) | CDK2/Cyclin E IC50, Purine·β-CD (1:1) (CDK2/cyclin E [1]; [16]) | other results
5.5 ± 1.3 µM | > 40 µM | 2.55 ± 0.08 µM | – | CC(C)n1cnc2c(Nc3cccc(C(=O)C45CC6CC(CC(C6)C4)C5)c3)nc(NCCCO)nc21 [Compound 4a, (1-Adamantyl)[3-({2-[(3-hydroxypropyl)amino]-9-isopropyl-9H-purin-6-yl}amino)phenyl]methanone] | 6.16 µM | 15 ± 0.16 µM | > 40 µM | > 6.25 µM | 15.7 ± 0.9 µM | > 40 µM | – | –
0.16 µM | 0.3 ± 0.2 µM | 0.21 ± 0.02 µM | 88 to 93 °C | CC(C)n1cnc2c(Nc3cccc(C(O)C45CC6CC(CC(C6)C4)C5)c3)nc(NCCCO)nc21 (stereo not drawn) [Compound 4b, 3-{[6-({3-[1-Adamantyl(hydroxy)methyl]phenyl}amino)-9-isopropyl-9H-purin-2-yl]amino}propan-1-ol] | > 6.25 µM | 34.69 ± 0.14 µM | > 40 µM | > 6.25 µM | 32 ± 3 µM | > 40 µM | essentially consistent with their non-complexed forms | Activity on CDK2/cyclin E, fold higher than bohemine (CDK2/cyclin E [1]; single purine, versus bohemine (4k)): 3.5 fold
1.85 µM | > 40 µM | > 10 µM and 12 µM | 88 to 93 °C | CC(C)n1cnc2c(Nc3cccc(CC45CC6CC(CC(C6)C4)C5)c3)nc(NCCCO)nc21 [Compound 4c, 3-{[6-{[3-(1-Adamantylmethyl)phenyl]amino}-9-isopropyl-9H-purin-2-yl]amino}propan-1-ol] | > 6.25 µM | 28.7 ± 10.2 µM | > 40 µM | > 6.25 µM | > 40 µM | > 40 µM | – | –
1.4 ± 0.5 µM | 7.57 µM | 0.6 ± 0.2 µM | – | CC(C)n1cnc2c(Nc3ccc(C(=O)C45CC6CC(CC(C6)C4)C5)cc3)nc(NCCCO)nc21 [Compound 4d, (1-Adamantyl)[4-({2-[(3-hydroxypropyl)amino]-9-isopropyl-9H-purin-6-yl}amino)phenyl]methanone] | 5.45 µM | 16.5 ± 0.7 µM | > 40 µM | 5.72 µM | 13.8 ± 1.4 µM | > 40 µM | – | IC50 (CDK2/cyclin E [1]; single purine, read-out: CDK2/cyclin E IC50): 0.58 µM; Fold more potent at inhibiting cell proliferation on K-562 than bohemine (K-562 [2]; single purine): 17.8 fold; Fold more potent at inhibiting cell proliferation on K-562 than roscovitine (K-562 [2]; single purine): 9.2 fold; Efficacy on MCF-7, fold higher than bohemine (MCF-7 [3]; single purine): 4.7 fold; Efficacy on MCF-7, fold higher than roscovitine (MCF-7 [3]; single purine): 2.2 fold
1.53 µM | 26.1 µM | 1.6 ± 0.7 µM | – | CC(C)n1cnc2c(Nc3ccc(C(O)C45CC6CC(CC(C6)C4)C5)cc3)nc(NCCCO)nc21 (stereo not drawn) [Compound 4e, 3-{[6-({4-[1-Adamantyl(hydroxy)methyl]phenyl}amino)-9-isopropyl-9H-purin-2-yl]amino}propan-1-ol] | 10.1 ± 0.8 µM | 18.7 ± 0.6 µM | > 40 µM | 8.1 ± 0.7 µM | 17 ± 2 µM | > 40 µM | essentially consistent with their non-complexed forms | –
> 40 µM | > 40 µM | > 12.5 µM | – | CC(C)n1cnc2c(Nc3ccc(CC45CC6CC(CC(C6)C4)C5)cc3)nc(NCCCO)nc21 [Compound 4f, 3-{[6-{[4-(1-Adamantylmethyl)phenyl]amino}-9-isopropyl-9H-purin-2-yl]amino}propan-1-ol] | 10.4 ± 0.7 µM | 24 ± 3 µM | > 40 µM | > 12.5 µM | 32.9 ± 0.1 µM | > 40 µM | no activity | CDK2/Cyclin E IC50, Purine·β-CD (1:10) (CDK2/cyclin E [1]; [17]): no activity; CDK2/Cyclin E IC50, Purine (CDK2/cyclin E [1]; [18]): no activity
1.24 µM | 7.15 µM | 0.92 ± 0.18 µM | 87 to 91 °C | CC(C)n1cnc2c(Nc3cccc(C(O)CC45CC6CC(CC(C6)C4)C5)c3)nc(NCCCO)nc21 (stereo not drawn) [Compound 4g, 3-{[6-({3-[2-(1-Adamantyl)-1-hydroxyethyl]phenyl}amino)-9-isopropyl-9H-purin-2-yl]amino}propan-1-ol] | > 6.25 µM | 33.6 ± 1.2 µM | > 40 µM | > 6.25 µM | 17 ± 2 µM | > 40 µM | essentially consistent with their non-complexed forms | –
> 40 µM | > 40 µM | > 12.5 µM | 72 to 78 °C | CC(C)n1cnc2c(Nc3cccc(CCC45CC6CC(CC(C6)C4)C5)c3)nc(NCCCO)nc21 [Compound 4h, 3-{[6-({3-[2-(1-Adamantyl)ethyl]phenyl}amino)-9-isopropyl-9H-purin-2-yl]amino}propan-1-ol] | > 12.5 µM | > 40 µM | > 40 µM | > 12.5 µM | > 40 µM | > 40 µM | no activity | CDK2/Cyclin E IC50, Purine·β-CD (1:10) (CDK2/cyclin E [1]; [17]): no activity; CDK2/Cyclin E IC50, Purine (CDK2/cyclin E [1]; [18]): no activity
> 40 µM | 30.7 µM | > 10 µM and 14 µM | 64 to 69 °C | CC(C)n1cnc2c(NCc3cccc(C(=O)CC45CC6CC(CC(C6)C4)C5)c3)nc(NCCCO)nc21 [Compound 4i] | > 6.25 µM | 19.8 ± 0.5 µM | > 40 µM | > 6.25 µM | 30 ± 5 µM | > 40 µM | – | –
15.7 µM | 20.9 µM | 3.26 ± 0.01 µM | – | CC(C)n1cnc2c(NCc3ccc(C(=O)CC45CC6CC(CC(C6)C4)C5)cc3)nc(NCCCO)nc21 [Compound 4j] | > 6.25 µM | 17.7 ± 0.6 µM | > 40 µM | > 6.25 µM | 21.51 ± 0.04 µM | > 40 µM | – | Activity on CDK2/cyclin E, fold higher than meta-analogue 4i (CDK2/cyclin E [1]; single purine, para versus meta): 4.3 fold
– | – | – | – | CC[C@H](CO)Nc1nc(NCc2ccccc2)c2ncn(C(C)C)c2n1 [Compound 4l, roscovitine] | – | – | – | – | – | – | – | GI50 (K-562 [4]): 50.1 µM; GI50 (MCF-7 [5]): 12.6 µM
– | – | – | – | CC(C)n1cnc2c(NC34CC5CC(CC(C5)C3)C4)nc(NCCCO)nc21 [Compound 4m, 6-[(1-adamantyl)amino]-2-[(3-hydroxypropyl)amino]-9-(propan-2-yl)purine] | – | – | – | – | – | – | – | IC50 (CDK2): > 100 µM; IC50 (CDK2/cyclin E [6]): > 100 µM; IC50 (CDK1): > 100 µM
– | – | – | – | CC(C)n1cnc2c(NC34CC5CC(CC(C5)C3)C4)nc(NCC(O)CO)nc21 (stereo not drawn) [Compound 4n] | – | – | – | – | – | – | – | IC50 (CDK2/cyclin E [6]): > 100 µM
